Assay [1] deals with ApoB secretion from HepG2 cells. The experiment in a line: ApoB secretion from HepG2 cells. The assay is classed as cell-based. Particulars: Homo sapiens, 24 hours, ApoB in medium by ELISA. Here is the method:
HepG2 cells (American Type Culture Collection: Catalog No. #HB-8065) are maintained in Growth Media consisting of DMEM with 4.5 g/L glucose (Cellgro: Catalog No. #10-013-CV), supplemented with 10% fetal bovine serum (FBS) (Cellgro: Catalog No. #35-011-CV) and 100 U/mL each penicillin and streptomycin (Cellgro: Catalog No. #30-002-Cl). For the assay, cells are plated @ ˜10,000 cells/well in white, clear-bottom, 96-well plates (Costar: Catalog No. #3610) and incubated in a humidified 5% CO2 atmosphere at 37° C. The next day, Growth Media is replaced with RPMI 1640 without glucose (Cellgro: Catalog No. #10-043-CV), supplemented with 10% charcoal/dextran treated FBS (Hyclone: Catalog No. #SH30068.02) and 100 U/mL each penicillin and streptomycin (starvation media). The cells are maintained overnight in a humidified 5% CO2 atmosphere at 37° C. […] Twenty-four hours later, the growth medium is collected and assessed for ApoB content. […]
The samples are removed and the plate is washed again 3× with 200 μL PBST, then 100 μL of 1/10,000 HRP-conjugated, affinity-purified polyclonal sheep anti-human ApoB detection antibody (BioDesign International Product No. # K90086P) is added to each well and the plate is incubated for one hour at 37° C. […] The plate is read for one second in an Orion Microplate Luminometer®. […]

In assay [2] the target is T1, Human ACC1 (amino acids 1603-2383) (Homo sapiens, UniProt Q13085).
T1 construct: Human ACC1 (amino acids 1603-2383); 6His (N); FLAG (N); TEV cleavage site (N); made in house; host or cells: Sf9 insect cells (baculovirus)
The experiment in a line: ThermoFluor measurement of compound binding to ACC1 CT domain. Particulars: carboxyterminus (CT) domain, pH 7.0, read-out: ACC1 TF Kd. As for the experimental part: (§1) The 6His.FLAG.TEV Human ACC2 (amino acids 1685-2458) (Egea Biosciences, San Diego, Calif.) and 6His.FLAG. TEV. Human ACC1 (amino acids 1603-2383) (Egea Biosciences, San Diego, Calif.) genes were synthesized and subcloned into the pENTR11 vector. Transfection-grade DNA was purified using the QIAwell® Kit from Qiagen. The LR reaction was performed overnight and then transfected into Sf9 cells using a BaculoDirect® Baculovirus Expression System (Invitrogen). The P0 virus was collected 4 days post transfection and used for another round of virus amplification. The resulting P1 virus and cells were collected 3 days post-infection. […]
(§2) On-column cleavage of the histidine tag was performed by injecting 96 ug of TEV S219V protease/mg (of ACC2 CT. The product was incubated at 4° C. for 20 hours. The cleaved ACC2 was eluted in buffer A and loaded directly onto a HiLoad® 16/60 Superdex 200 column (GE Healthcare), preequilibrated with 25 mM Tris Buffer (at pH 8.0, 200 mM NaCl, 5% Glycerol, 5 mM DTT). Fractions containing ACC2 CT, assayed by SDS-PAGE, were pooled. For cocrystallization, the compound was added in a 1:2 molar ratio of protein:compound and incubated overnight at 4° C. The complex was concentrated to a final protein concentration of 7 mg/mL using an 30 kDa cut-off Ultrafree® membrane (Millipore, Billerica, Mass.) and was then ready for crystallization. […]

The target of assay [3] is T2, Human ACC2 (amino acids 1685-2458) (Homo sapiens, UniProt O00763).
T2 construct: Human ACC2 (amino acids 1685-2458); 6His (N, cleaved yes); FLAG (N, cleaved yes); TEV cleavage site (N, cleaved yes); made in house; host or cells: Sf9 insect cells (baculovirus)
The experiment in a line: ThermoFluor measurement of compound binding to ACC2 CT domain. Particulars: carboxyterminus (CT) domain, pH 7.0, read-out: ACC2 TF Kd. Here is the method: as §1, §2

T2 sequence (O00763 1685-2458): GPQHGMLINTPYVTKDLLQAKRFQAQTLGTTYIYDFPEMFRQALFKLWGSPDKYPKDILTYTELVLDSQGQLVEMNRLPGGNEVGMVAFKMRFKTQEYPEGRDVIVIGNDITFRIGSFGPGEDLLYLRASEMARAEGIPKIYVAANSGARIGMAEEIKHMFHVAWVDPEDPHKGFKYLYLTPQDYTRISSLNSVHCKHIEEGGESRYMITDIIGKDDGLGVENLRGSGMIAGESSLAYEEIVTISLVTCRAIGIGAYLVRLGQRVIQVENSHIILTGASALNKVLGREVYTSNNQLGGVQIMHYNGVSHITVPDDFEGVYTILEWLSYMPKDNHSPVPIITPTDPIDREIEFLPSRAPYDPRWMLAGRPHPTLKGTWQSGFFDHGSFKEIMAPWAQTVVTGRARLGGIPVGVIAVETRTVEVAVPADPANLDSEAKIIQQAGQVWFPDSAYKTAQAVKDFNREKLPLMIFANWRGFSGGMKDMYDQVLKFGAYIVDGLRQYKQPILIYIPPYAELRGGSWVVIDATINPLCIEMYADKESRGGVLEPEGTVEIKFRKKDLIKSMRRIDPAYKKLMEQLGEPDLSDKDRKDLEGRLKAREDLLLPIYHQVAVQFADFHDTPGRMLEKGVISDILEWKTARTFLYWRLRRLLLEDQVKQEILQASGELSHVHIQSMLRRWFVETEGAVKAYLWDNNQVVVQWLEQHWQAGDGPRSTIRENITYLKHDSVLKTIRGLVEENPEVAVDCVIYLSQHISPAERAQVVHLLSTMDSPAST

`Cc1ccc2nc(-c3ccncc3)cc(C(=O)N3CCN(Cc4ccc5c(c4)OCCO5)CC3)c2c1` [Cpd 1, [4-(2,3-Dihydro-benzo[1,4]dioxin-6-ylmethyl)-piperazin-1-yl]-(6-methyl-2-pyridin-4-yl-quinolin-4-yl)methanone] showed an IC50 in assay [1] of 8000 nM. The Kd was 970 nM in assay [2] and 400 nM in assay [3].

For the origin of these results see patent publication US20100113473A1, “ARYL AMIDE COMPOUND AS AN ACETYL COENZYME A CARBOXYLASE INHIBITOR” (priority 2008, published 2010).
